Calls of active or inactive are those of the source.
What was measured:
[1] = molecular target: Nonstructural protein 1 (Influenza A virus, UniProt Q194T2); format: functional, Influenza A virus (A/California/07/2009(H1N1))
[2] = molecular target: T1, Protein skinhead-1 (Caenorhabditis elegans, UniProt P34707); format: functional
T1 sequence (P34707 whole entry): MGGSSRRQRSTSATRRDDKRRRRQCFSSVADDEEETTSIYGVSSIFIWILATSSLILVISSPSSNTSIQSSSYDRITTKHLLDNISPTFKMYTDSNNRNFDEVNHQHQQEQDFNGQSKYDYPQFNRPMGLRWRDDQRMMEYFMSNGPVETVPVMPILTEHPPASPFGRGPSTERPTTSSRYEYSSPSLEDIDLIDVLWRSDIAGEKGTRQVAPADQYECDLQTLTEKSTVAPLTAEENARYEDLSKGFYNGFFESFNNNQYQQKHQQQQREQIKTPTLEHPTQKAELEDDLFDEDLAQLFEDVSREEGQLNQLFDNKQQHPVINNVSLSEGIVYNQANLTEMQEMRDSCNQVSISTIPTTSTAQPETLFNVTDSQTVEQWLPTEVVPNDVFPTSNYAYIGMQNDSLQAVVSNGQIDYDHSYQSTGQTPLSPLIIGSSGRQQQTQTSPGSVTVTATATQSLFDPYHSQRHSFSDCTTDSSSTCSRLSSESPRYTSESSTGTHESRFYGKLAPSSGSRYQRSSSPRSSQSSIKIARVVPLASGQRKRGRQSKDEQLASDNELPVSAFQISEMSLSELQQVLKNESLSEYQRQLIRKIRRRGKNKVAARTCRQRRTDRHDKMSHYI

[3] = molecular target: T2, Protein RecA (Mycobacterium tuberculosis, UniProt P9WHJ3); assay: Fluorescence Cell-Free Homogeneous Dose Retest to Identify Inhibitors of RecA-Intein Splicing Activity. [Related pubchem assays (depositor defined):AID2097, AID2223, AID489010, AID492950]; format: functional
T2 sequence (P9WHJ3 whole entry): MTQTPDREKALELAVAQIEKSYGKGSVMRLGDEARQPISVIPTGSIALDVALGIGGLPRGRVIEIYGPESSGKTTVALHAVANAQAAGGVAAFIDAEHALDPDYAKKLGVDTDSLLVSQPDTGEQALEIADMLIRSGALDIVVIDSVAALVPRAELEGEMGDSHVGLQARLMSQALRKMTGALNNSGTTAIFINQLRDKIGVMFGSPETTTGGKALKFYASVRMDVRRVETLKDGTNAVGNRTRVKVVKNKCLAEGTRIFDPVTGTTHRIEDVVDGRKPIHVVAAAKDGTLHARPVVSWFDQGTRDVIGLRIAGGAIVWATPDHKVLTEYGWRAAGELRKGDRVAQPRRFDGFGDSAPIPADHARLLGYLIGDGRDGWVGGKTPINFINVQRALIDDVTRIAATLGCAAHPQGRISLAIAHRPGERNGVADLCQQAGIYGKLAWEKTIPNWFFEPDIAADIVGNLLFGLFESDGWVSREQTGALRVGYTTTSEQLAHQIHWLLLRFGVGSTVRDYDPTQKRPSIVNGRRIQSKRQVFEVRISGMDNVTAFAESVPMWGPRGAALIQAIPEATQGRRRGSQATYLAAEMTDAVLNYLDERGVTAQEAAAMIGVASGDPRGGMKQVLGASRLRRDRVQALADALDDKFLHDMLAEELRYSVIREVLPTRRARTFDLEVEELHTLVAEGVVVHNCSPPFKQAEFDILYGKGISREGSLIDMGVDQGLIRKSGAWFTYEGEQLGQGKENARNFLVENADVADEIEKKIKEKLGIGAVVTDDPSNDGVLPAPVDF

[4] = molecular target: T3, Replicative DNA helicase DnaB (Mycobacterium tuberculosis, UniProt P9WMR3); assay: DnaB intein splicing inhibitors, dose response, biochemical, cell-free fluorescence (AID 449749); format: functional
T3 sequence (P9WMR3 whole entry): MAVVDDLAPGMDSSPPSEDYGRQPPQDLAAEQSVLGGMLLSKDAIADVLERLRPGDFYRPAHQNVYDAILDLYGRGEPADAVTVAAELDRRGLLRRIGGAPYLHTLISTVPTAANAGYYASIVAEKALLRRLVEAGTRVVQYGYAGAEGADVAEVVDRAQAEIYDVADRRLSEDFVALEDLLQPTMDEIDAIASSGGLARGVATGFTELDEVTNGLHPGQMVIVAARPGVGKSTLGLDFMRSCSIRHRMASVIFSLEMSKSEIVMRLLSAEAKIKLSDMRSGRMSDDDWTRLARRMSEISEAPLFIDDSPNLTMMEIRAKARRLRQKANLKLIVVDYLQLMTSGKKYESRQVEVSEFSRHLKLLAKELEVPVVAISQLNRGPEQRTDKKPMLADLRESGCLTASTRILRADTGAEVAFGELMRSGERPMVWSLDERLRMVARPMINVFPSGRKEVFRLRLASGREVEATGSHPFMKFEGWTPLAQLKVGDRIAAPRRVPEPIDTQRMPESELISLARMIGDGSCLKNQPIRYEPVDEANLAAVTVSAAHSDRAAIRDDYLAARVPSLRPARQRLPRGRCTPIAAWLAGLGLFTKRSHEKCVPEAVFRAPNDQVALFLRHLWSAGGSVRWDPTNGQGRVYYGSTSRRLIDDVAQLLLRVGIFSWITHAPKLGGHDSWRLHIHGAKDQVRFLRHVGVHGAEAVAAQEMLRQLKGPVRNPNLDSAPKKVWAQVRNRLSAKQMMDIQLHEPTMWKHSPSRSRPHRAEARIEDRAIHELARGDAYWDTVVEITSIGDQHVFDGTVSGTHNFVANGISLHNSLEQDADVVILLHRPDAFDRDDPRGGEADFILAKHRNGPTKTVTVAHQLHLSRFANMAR

[5] = molecular target: T4, DNA repair protein RAD52 homolog (Homo sapiens, UniProt P43351); format: functional, biochemical
T4 sequence (P43351 whole entry): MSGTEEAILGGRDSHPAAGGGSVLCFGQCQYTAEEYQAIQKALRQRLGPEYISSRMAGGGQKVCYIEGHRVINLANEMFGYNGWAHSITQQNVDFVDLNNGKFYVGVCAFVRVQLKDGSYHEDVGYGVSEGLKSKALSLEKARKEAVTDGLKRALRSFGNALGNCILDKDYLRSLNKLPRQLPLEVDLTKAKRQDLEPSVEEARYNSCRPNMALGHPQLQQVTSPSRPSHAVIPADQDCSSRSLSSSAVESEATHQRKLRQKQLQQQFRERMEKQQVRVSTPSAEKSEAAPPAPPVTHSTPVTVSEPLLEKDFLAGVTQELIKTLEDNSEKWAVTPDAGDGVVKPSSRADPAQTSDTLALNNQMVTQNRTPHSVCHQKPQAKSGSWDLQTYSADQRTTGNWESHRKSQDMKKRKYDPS

[6] = molecular target: T5, DNA repair and recombination protein RAD54-like (Homo sapiens, UniProt Q92698); assay: RAD54 Holliday junction migration blockers – biochemical, fluorescence, cherry-picked samples, dose series, confirmation (AID 651657); format: functional
T5 sequence (Q92698 whole entry): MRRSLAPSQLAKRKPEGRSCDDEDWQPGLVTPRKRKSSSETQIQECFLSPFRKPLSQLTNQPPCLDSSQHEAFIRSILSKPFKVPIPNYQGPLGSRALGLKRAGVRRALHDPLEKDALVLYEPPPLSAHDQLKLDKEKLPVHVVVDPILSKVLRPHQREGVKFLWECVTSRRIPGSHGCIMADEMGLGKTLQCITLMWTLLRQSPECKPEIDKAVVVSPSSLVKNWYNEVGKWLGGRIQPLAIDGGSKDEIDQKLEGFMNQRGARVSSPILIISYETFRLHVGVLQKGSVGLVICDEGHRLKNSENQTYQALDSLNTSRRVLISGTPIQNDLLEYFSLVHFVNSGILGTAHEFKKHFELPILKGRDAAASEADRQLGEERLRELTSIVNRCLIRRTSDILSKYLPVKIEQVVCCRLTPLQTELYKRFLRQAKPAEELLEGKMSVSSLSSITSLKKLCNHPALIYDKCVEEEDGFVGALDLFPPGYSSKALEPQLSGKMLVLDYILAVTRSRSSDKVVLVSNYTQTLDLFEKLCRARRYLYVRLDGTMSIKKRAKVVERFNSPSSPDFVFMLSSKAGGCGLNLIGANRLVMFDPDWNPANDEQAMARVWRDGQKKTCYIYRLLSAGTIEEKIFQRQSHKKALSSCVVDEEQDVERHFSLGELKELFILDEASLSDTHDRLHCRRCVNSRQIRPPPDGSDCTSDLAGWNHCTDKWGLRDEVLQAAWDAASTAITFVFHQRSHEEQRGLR

[7] = molecular target: T6, Short transient receptor potential channel 4 (Mus musculus, UniProt Q9QUQ5); assay: block of DAMGO-driven TRPC4 calcium entry – cell-based, HEK293 TRPC4/mu-opioid, Fluo-4 calcium, dose response (AID 434942); format: functional;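 also: potency of inhibitors blocking the TRPC4 calcium response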
T6 sequence (Q9QUQ5 whole entry): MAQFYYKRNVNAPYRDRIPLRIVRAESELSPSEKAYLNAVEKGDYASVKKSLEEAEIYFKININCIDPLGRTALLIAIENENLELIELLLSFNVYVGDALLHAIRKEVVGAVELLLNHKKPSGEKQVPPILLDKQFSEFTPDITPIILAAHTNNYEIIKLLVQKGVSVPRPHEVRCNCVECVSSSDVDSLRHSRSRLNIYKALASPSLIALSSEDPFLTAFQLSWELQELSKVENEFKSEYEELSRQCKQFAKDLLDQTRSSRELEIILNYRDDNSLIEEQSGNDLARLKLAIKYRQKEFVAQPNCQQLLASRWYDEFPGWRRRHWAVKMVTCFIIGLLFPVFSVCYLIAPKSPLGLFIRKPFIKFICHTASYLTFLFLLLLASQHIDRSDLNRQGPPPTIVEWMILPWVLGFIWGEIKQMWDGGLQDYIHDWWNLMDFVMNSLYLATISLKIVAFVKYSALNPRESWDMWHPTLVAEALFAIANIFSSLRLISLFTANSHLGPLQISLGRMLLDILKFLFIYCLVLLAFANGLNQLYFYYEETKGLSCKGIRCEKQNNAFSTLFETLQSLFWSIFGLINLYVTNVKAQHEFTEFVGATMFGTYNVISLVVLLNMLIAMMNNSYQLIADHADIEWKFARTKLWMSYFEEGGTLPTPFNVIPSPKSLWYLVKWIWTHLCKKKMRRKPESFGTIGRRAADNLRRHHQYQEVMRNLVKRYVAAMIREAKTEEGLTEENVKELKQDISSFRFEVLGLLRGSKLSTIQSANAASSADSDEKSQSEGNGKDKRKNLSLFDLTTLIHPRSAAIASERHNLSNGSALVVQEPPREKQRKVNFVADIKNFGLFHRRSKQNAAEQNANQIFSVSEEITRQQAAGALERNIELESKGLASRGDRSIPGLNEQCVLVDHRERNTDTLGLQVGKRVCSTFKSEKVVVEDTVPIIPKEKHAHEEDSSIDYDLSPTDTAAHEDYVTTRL

[8] = molecular target: Heat shock protein HSP 90-alpha (Homo sapiens, UniProt P07900); format: functional, organism-based
[9] = molecular target: T7, Ubiquitin-conjugating enzyme E2 N (Homo sapiens, UniProt P61088); format: functional;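 also: Dose-response confirmation in a TR-FRET assay detecting UBC13-driven polyubiquitin chain formation, inhibition measured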
T7 sequence (P61088 whole entry): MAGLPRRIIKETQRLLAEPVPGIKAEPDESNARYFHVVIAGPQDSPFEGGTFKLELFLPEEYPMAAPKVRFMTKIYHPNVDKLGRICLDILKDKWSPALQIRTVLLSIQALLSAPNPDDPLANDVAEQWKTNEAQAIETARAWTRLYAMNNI

[10] = system: INS1; assay: INS-1E survival protection against cytokine death – cell-based, luminescence, retest, dose response (AID 449756); format: functional; details: Rattus norvegicus;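 also: cell death triggered by IL-1 beta plus TNF-alpha plus IFN-gamma mixture; protective hits raise ATP signal compared with cytokine alone wells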
[11] = P. falciparum Dd2 growth inhibitors, dose response, SYBR Green, cherry-picked samples (AID 1159567); format: functional, cell-based
[12] = molecular target: Large T antigen (Simian virus 40, UniProt P03070); format: functional, Betapolyomavirus macacae;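 also: Confirmatory-stage PubChem screen for compounds that inhibit SV40 T antigen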
Large T antigen, sequence (P03070 whole entry): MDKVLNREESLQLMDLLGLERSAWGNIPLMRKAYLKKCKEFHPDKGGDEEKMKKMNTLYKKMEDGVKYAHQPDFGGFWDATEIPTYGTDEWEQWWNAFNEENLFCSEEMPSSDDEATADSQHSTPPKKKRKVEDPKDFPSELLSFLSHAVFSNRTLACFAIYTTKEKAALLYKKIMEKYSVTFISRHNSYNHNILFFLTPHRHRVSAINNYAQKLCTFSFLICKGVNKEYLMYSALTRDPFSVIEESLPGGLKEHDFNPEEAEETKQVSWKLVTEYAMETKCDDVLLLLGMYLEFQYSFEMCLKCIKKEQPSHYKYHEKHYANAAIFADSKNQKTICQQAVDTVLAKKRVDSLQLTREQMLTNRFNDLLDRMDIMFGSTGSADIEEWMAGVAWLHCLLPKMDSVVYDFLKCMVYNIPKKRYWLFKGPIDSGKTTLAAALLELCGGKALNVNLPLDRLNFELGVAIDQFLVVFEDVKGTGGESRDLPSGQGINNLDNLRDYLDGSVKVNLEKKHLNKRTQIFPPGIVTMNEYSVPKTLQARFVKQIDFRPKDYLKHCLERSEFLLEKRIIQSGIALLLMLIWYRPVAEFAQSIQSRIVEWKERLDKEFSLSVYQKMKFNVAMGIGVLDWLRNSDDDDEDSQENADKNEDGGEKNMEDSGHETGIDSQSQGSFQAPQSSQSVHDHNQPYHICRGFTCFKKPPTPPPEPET

Nonstructural protein 1, sequence (Q194T2 whole entry): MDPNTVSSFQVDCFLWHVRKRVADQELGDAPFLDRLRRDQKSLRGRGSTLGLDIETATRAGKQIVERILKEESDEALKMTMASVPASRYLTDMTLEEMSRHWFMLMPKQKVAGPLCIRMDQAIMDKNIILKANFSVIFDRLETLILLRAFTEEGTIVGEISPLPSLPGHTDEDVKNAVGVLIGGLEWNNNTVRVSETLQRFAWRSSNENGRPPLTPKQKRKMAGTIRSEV

## CC(=O)N1/C(=C/c2ccc(N(C)C)cc2)C(=O)c2ccccc21
[1]
  IC50: 16.7 µM (active)
[2]
  IC50: 76.9 µM (inactive)

## O=C(CSc1n[nH]c(-c2ccccn2)n1)Nc1ccccc1F
[1]
  IC50: 7.23 µM (active)

## N#CCCN(C(=O)CCl)c1cccc(Cl)c1
[3]
  EC50: 8.64 µM (active)
[4]
  AC50: 78.4 µM (active)

## N#CC1=C(N)Oc2[nH]nc(-c3ccc(F)cc3)c2C1c1cccc(OC(=O)N2CCOCC2)c1 (stereo not drawn)
[3]
  EC50: 1.29 µM (active)
[4]
  AC50: 6.74 µM (active)

## O=C(NN=Cc1cccc([N+](=O)[O-])c1)c1cc[n+](CCO)cc1
[5]
  AC50: 14.1 µM (active)

## COc1ccc(Nc2cc(C)nc3ccc(OC)cc23)cc1
[6]
  AC50: 20.5 µM (active)
[7]
  EC50: 4.73 µM (active)
[5]
  AC50: 15 µM (active)

## Cc1ccc(-n2nc(C)c3c2OC(N)=C(C#N)C3c2ccoc2)cc1 (stereo not drawn)
[3]
  EC50: 2.56 µM (active)
[4]
  AC50: 5.41 µM (active)

## CCOc1ccccc1-c1c2cc(O)c(=O)cc-2oc2cc(O)c(O)cc12
[1]
  IC50: 28.1 µM (active)
[8]
  AC50: 6.24 µM (active)

## CN(C)c1ccc(NC(=O)CN2CCC(NC(=O)C3CCCCC3)CC2)cc1
[9]
  IC50: > 20 µM (inactive)
[5]
  AC50: 14.8 µM (active)

## c1cncc(CNc2ncnc3sc4c(c23)CCCC4)c1
[3]
  EC50: > 380 µM (inactive)
[4]
  AC50: > 380 µM (inactive)

## CN(C)CCNC(=O)c1cccc(-c2cnc3c(NC=O)cc(-c4ccc(S(C)(=O)=O)cc4)cn23)c1
[6]
  AC50: 24.1 µM (active)
[5]
  AC50: 5.29 µM (active)

## Nc1nonc1-n1nnc(C(=O)N/N=C/c2ccccc2O)c1CN1CCCC1
[10]
  AC50: 5.79 µM (active)
[1]
  IC50: 11.4 µM (active)

## O=C(C[C@H]1CC[C@@H]2[C@H](COC[C@H](O)CN2Cc2cc(F)ccc2F)O1)N[C@@H]1CCN(Cc2ccccc2)C1
[11]
  AC50: 7.42 µM (active)

## CN1c2ccc(-c3ccccc3)cc2[C@@H]2[C@@H](CCN2C(=O)c2ccccc2)[C@H]1CO
[11]
  AC50: 8.29 µM (active)

## CN1CCN(c2nc(Nc3ccc(O)cc3)nc3ccccc23)CC1
[12]
  IC50: 8.58 µM (active)
[5]
  AC50: 5.21 µM (active)

## COc1cc2c(cc1OC)-c1cc3ccc(OC)c(OC)c3c[n+]1CC2 [PALMATINE CHLORIDE]
[5]
  AC50: 5.19 µM (active)

From ChEMBL document CHEMBL1201862, “PubChem BioAssay data set” (2004)
